Measured values reported in patent US11254702B2, “Thionyl tetrafluoride modified compounds and uses” (The Scripps Research Institute, priority 2016, dated 2022).

Assays:
zebrafish embryos = assay: Zebrafish embryo phenotype after incubation with compound; assay type: in vivo; settings: zebrafish embryos treated at concentrations of 10 and 20 μM; micrographic images (FIG. 14 A, B)
Protocol: FIG. 14 provides micrographic images of zebrafish embryos: (A) and (B) Phenotypes generated by incubating zebrafish embryos with Compound 2-23 at various concentration; (C) Lysates from Compound 2-23 treated or untreated embryos at 24 hpf were reacted with biotin-azide, pull-down with streptavidin beads and analyzed using SDS-PAGE.
FIG. 14 provides micrographic images of zebrafish embryos. Panels (A) and (B) illustrate phenotypes generated by incubating zebrafish embryos with Compound 2-23 at various concentrations. […] Panel (C) provides SDS-PAGE images of lysates from Compound 2-23 treated or untreated embryos at 24 hours post fertilization (hpf). The lysates were treated with biotin-azide and a copper(I) catalyst to react with the terminal alkyne via a copper-catalyzed azide-alkyne Click reaction and thereby attach biotin to any Compound 2-23 that may have been bound to a protein in the lysate. The biotinated lysate was then pulled-down with streptavidin beads and analyzed using SDS-PAGE.

Compound | melting point | phenotypical changes in the embryos (zebrafish embryos)
C#Cc1ccc(N=S2(=O)Oc3ccccc3O2)cc1 [Compound 9-1, 2-((4-Ethynylphenyl)imino)-2λ^4-benzo[d][1,3,2]dioxathiole 2-oxide] | 97 to 98 °C | 
C#CCOC[C@H]1O[C@@H](n2cc(C)c(=O)[nH]c2=O)C[C@@H]1N=S(=O)(F)N1CCC1 (some centres unmarked) | 105 to 106 °C | 
C#Cc1ccc(N=S(=O)(Oc2ccccc2O)N2CCN(C(=O)OC(C)(C)C)CC2)cc1 (stereo not drawn) [Compound 10-2, tert-Butyl 4-(N-(4-ethynylphenyl)-S-(2-hydroxyphenoxy)sulfonimidoyl)piperazine-1-carboxylate] | 139 to 141 °C | 
C#Cc1ccc(N=S(=O)(Oc2ccccc2O)N2CCCCC2)cc1 (centres unmarked) [Compound 10-1, 2-Hydroxyphenyl N-(4-ethynylphenyl)piperidine-1-sulfonimidate] | 93 °C | 
C#Cc1ccc(N=S(=O)(F)Oc2ccc(-c3ccccc3)cc2)cc1 (centres unmarked) [Compound 6-1, [1,1′-biphenyl]-4-yl (4-ethynylphenyl)sulfurofluoridoimidate] | 94 to 95 °C | 
C#Cc1ccc(N=S2(=O)Oc3c(C)ccc(C)c3O2)cc1 [Compound 9-2, 2-((4-Ethynylphenyl)imino)-4,7-dimethyl-2λ^4-benzo[d][1,3,2]dioxathiole 2-oxide] | 101 °C | 
O=C1[C@@H]([C@H](c2ccccc2)N2CCN(c3ccc(F)cc3)CC2)N=S(=O)(F)N1C1CCCCC1 (stereo partly drawn) [Compound 2-25, (4R)-2-Cyclohexyl-1-fluoro-4-((S)-(4-(4-fluorophenyl)piperazin-1-yl)(phenyl)methyl)-2,4-dihydro-3H-1λ^6,2,5-thiadiazol-3-one 1-oxide] | 139 to 140 °C | 
C#CCOC[C@H]1O[C@@H](n2cc(C)c(=O)[nH]c2=O)C[C@H]1N=S(=O)(F)F [Compound 2-23, ((2S,3S,5R)-5-(5-Methyl-2,4-dioxo-3,4-dihydropyrimidin-1(2H)-yl)-2-((prop-2-yn-1-yloxy)methyl)tetrahydrofuran-3-yl)sulfurimidoyl Difluoride] |  | significant phenotypical changes
C#Cc1ccc(NS(=O)(=O)NCC(=O)O)cc1 [Compound 4-1, (N-(4-ethynylphenyl)sulfamoyl)glycine] | 113 to 115 °C | 
C#Cc1ccc(NS(=O)(=O)N[C@@H](C)C(=O)O)cc1 [Compound 4-2, (N-(4-Ethynylphenyl)sulfamoyl)-L-alanine] | 163 to 165 °C | 
C#CCOC[C@H]1O[C@@H](n2cc(C)c(=O)[nH]c2=O)C[C@@H]1N=S(=O)(F)Oc1ccc2c(c1)CC[C@H]1C3CCC(=O)[C@@]3(C)CC[C@H]21 (some centres unmarked) | 94 to 95 °C | 
C#Cc1ccc(N=S2(=O)Oc3ccccc3-c3ccccc3O2)cc1 [Compound 9-4, 6-((4-Ethynylphenyl)imino)-6λ^4-dibenzo[d,f][1,3,2]dioxathiepine 6-oxide] | 138 to 139 °C | 
C#Cc1ccc(N=S(=O)(F)N2CCC(=O)CC2)cc1 (centres unmarked) | 70 °C | 
C#Cc1ccc(N=S(=O)(Oc2ccc(-c3ccccc3)cc2)Oc2ccc(-c3ccccc3)cc2)cc1 [Compound 7-2, Di([1,1′-biphenyl]-4-yl) (4-ethynylphenyl)sulfurimidate] | 129 °C | 
